Laboratory results: US5830855A, “Lipodepsipeptides as antifungal and fungicidal agents” (priority 1996, dated 1998)
Numbered stars: 1 amine (or outer) side, 2 acyl side, 3 side chain; on linkers, the order of the positions; unused ones are H or OH. Bridge positions count the residues as written; N and C are the ends. Square brackets hold non-standard residues; d marks the D form. Peptide text beside a SMILES is read from it. * marks the point of attachment. ξ: configuration not given here. Asp(3S-OH) = N[C@H](C(=O)O)[C@H](O)C(=O)O; Thr(4-Cl) = N[C@H](C(=O)O)[C@H](O)CCl; ξAsp(3ξ-OH) = NC(C(=O)O)C(O)C(=O)O; X3 = O=C(C(N[*:1])C(O)CCl)[*:2]; X1 = CCCCCCCCC[C@@H](O)CC(=O)*; X2 = CCCCCCCCCCCC(O)CC(=O)*; dDab = NCC[C@@H](N)C(=O)O; Dab = NCC[CH](N)C(=O)O; Orn = NCCC[CH](N)C(=O)O; hSer = N[CH](CCO)C(=O)O; Dhb = C/C=C(\N)C(=O)O

Columns and labels:
[1] = test system: monoclonal antibody to CD3 (anti-CD3)-induced lymphocyte proliferation; test: anti-CD3-induced lymphocyte proliferation ([3H]-thymidine incorporation); format: cell-based, human
Procedure: Lipodepsipeptide for Immunosuppression Experiments: SR-E was purified as previously described in Bidwai, A. P., Bachmann, R. C. and Takemoto, J. Y., "Mechanism of action of Pseudomonas syringae phytotoxin syringomycin". Plant Physiol. 83:39-43 (1987). A stock solution (10 mg per ml) was prepared in RPMI1640 culture media, aliquoted and stored frozen at -20°.
Lymphocyte stimulation: Lymphocyte stimulation was performed with three different mitogens: phytohemagglutinin (PHA), pokeweed mitogen (PWM), and monoclonal antibody to CD3 (anti-CD3). […]
Mitogen-induced lymphocyte proliferation: Peripheral blood mononuclear cells (MNC) (containing lymphocytes and monocytes) were separated by Ficoll-Hypaque density-gradient centrifugation using techniques well known in the art. Mitogen-induced lymphocyte proliferation was determined as previously described in Singh, V. K., "Stimulatory effect of corticotropin-releasing neurohormone on human lymphocyte proliferation and interleukin-2 receptor expression". […]
[^3 H]-thymadine Incorporation: Cells were pulse-labeled for 4 hours with 0.5 μCi/well of [^3 H]methyl-thymidine (spec. act.=25 Ci/mmol from Amersham Intl.). […] To each vial, 2 ml of CytoScint fluid (ICN Biomedicals) was dispensed and the radioactivity determined using a liquid scintillation counter (Tri-Carb, Packard). […]

Sheep erythrocytes = test: Erythrocyte toxicity (sheep RBC hemolysis, hemoglobin release); format: cell-based; conditions: 37° C. 1 hr, FIG. 1 and 2
Procedure: Erythrocyte Toxicity: Sheep red blood cell (RBC) hemolysis was used to assess erythrocyte toxicity of the CLPs and AmB. RBCs (MicroBio Products, Inc., Salt Lake City, Utah) were washed four times with phosphate-buffered-saline (PBS) by centrifugation at 800× g for 10 min and adjusted to 1×10^8 cells/ml as previously described by Chavanet, P., V. Joly, D. Rigaud, J. Bolard, C. Carbon, and P. Yeni. 1994. Influence of diet on experimental toxicity of amphotericin B deoxycholate. Antimicrob. Agents Chemother. 38(5):963-968. RBCs and a 2× concentration of SR-E, ST-B or SS-A in PBS were mixed in a 1:1 ratio and incubated at 37° C. for 1 hr. After incubation, cells were pelleted by centrifugation at 800× g for 10 min and the supernatant was collected and the absorbance at 550 nm was determined. […] Distilled water and PBS were used as lysis and hemoglobin retention controls, respectfully, as described by National Committee for Clinical Laboratory Standards. 1992. Reference method for broth dilution antifungal susceptibility testing of yeasts; proposed standard, NCCLS document M27-P (ISBN 1-56238-186-5). NCCLS, Villanova.

SMILES	significant inhibition of anti-CD3 response ([1]; 1.14 μM)	suppression of anti-CD3 response ([1]; 5.72 μM, p=0.02) [%]	erythrocyte toxicity (lysis, hemoglobin release) (Sheep erythrocytes)
C/C=C1\NC(=O)[C@H](Cc2ccccc2)NC(=O)[C@H](CCCN=C(N)N)NC(=O)[C@@H](CCN)NC(=O)[C@H](CCN)NC(=O)[C@@H](CO)NC(=O)[C@@H](NC(=O)C[C@H](O)CCCCCCCCC)COC(=O)[C@H]([C@H](O)CCl)NC(=O)[C@H]([C@H](O)C(=O)O)NC1=O [SR-E, Syringomycin-E] (X1-S[dS][Dab][dDab]RF[Dhb][Asp(3S-OH)][Thr(4-Cl)]; ester 1-C)	not	30	–
C/C=C1\NC(=O)C(C(C)O)NC(=O)C(CCCN)NC(=O)C(CCO)NC(=O)CNC(=O)C(CCN)NC(=O)C(NC(=O)CC(O)CCCCCCCCCCC)COC(=O)C(C(O)CCl)NC(=O)C(C(O)C(=O)O)NC1=O (stereo not drawn) [ST-B, Syringotoxin B] (X2-S[Dab]G[hSer][Orn]T[Dhb][ξAsp(3ξ-OH)][X3]; ester 1-C; configuration not given here)	–	–	least toxic of the three CLPs
